The values below come from ChEMBL document CHEMBL4392883, “Konamycins A and B and Rubromycins CA1 and CA2, Aromatic Polyketides from the Tunicate-Derived Streptomyces hyaluromycini MB-PO13T” (2019).

Common to all, as to type: functional
The nature of assay [1]: Antioxidant activity assessed as superoxide dismutase-like activity measured after 20 mins by WST-based assay.
Assay [2] in a line: Antioxidant activity assessed as DPPH radical scavenging activity.
A further assay has as its system Enterococcus faecalis. Put plainly: Antimicrobial activity against Enterococcus faecalis NBRC 100480 measured after 20 hrs.
For assay [3], the system named is Mycolicibacterium smegmatis. Put plainly: Antimicrobial activity against Mycobacterium smegmatis NBRC 3207 measured after 20 hrs. Conditions: NBRC 3207, 20 h.
A further assay has as its system Candida albicans. The assay can be described thus: Antimicrobial activity against Candida albicans NBRC 1594 measured after 20 hrs. Conditions: NBRC 1594, 20 h.
In another assay the test system is Kocuria rhizophila. The assay can be described thus: Antimicrobial activity against Kocuria rhizophila ATCC 9341 measured after 20 hrs. Conditions: DC2201 .
For another assay, the system named is Kluyveromyces marxianus. The assay can be described thus: Antimicrobial activity against Kluyveromyces fragilis ATCC 8635 measured after 20 hrs. As to conditions: ATCC 8635, 20 h.
The next assay deals with Staphylococcus aureus. Put plainly: Antimicrobial activity against Staphylococcus aureus IFO 12732 measured after 20 hrs. Conditions: IFO 12732, 20 h.
The next assay has as its system Bacillus cereus. Put plainly: Antimicrobial activity against Bacillus cereus NBRC 15305 measured after 20 hrs. As to conditions: NBRC 15305, 20 h.
The subject of the next assay is Escherichia coli. The assay can be described thus: Antimicrobial activity against Escherichia coli NIH-JC2 measured after 20 hrs. As to conditions: NIH-JC2, 20 h.

Converted amounts (≈) assume the structure as drawn. Where only a bound is given, the exact number is not on record here.

Turning to `CC(=O)O[C@H]1C2=C(C=C3C(=O)c4c(ccc([C@H]5CC[C@H](O)[C@@H](C)O5)c4O)C(O)=C32)C(=O)[C@@](C)(O)[C@@H]1OC(=O)CCC(=O)O`, the SC50 in assay [1] amounted to 66 µM; in assay [2] it was 21 µM.
Turning to `Cc1c(C)c2c(c(C)c1O)CCC(C)(C(=O)O)O2` (stereo not given), the SC50 in assay [2] was found to be 9 µM.
For the molecule `COC1=CC(=O)c2c(O)c3c(c(O)c2C1=O)O[C@@]1(CCc2cc4cc(C(=O)O)oc(=O)c4c(O)c2O1)[C@H]3O`, the MIC against Enterococcus faecalis is above 100 µg/mL; in assay [3] it was 12.5 µg/mL (≈ 23.8 µM); with Candida albicans it was above 100 µg/mL; in the assay on Kocuria rhizophila it was 50 µg/mL (≈ 95.3 µM); with Kluyveromyces marxianus, above 100 µg/mL; against Staphylococcus aureus it was 0.4 µg/mL (≈ 0.763 µM). The MIC against Bacillus cereus was 50 µg/mL (≈ 95.3 µM); in the assay with Escherichia coli, above 100 µg/mL.
Turning to `COC1=CC(=O)c2c(O)c3c(c(O)c2C1=O)O[C@@]1(CCc2cc4cc(C(=O)O)oc(=O)c4c(O)c2O1)C3`, the MIC is 100 µg/mL (≈ 197 µM) in the assay on Enterococcus faecalis; 3.1 µg/mL (≈ 6.1 µM) in [3]; 6.3 µg/mL (≈ 12.4 µM) in the assay on Candida albicans; 12.5 µg/mL (≈ 24.6 µM) against Kocuria rhizophila; 12.5 µg/mL (≈ 24.6 µM) in the assay on Kluyveromyces marxianus; 0.2 µg/mL (≈ 0.393 µM) against Staphylococcus aureus. Moreover, the MIC against Bacillus cereus is 12.5 µg/mL (≈ 24.6 µM); in the assay on Escherichia coli it was above 100 µg/mL.
As for `O=C(O)c1cc(O)c(O)c(O)c1`, in assay [1], the SC50 was determined as 102 µM.

As a reminder, the MIC is the smallest concentration in the dilution series that meets the test's criterion for growth inhibition. Read a high MIC as weaker potency.
